Assay [1] relates to PANC-1 cells (pancreatic ductal adenocarcinoma). The experiment in a line: Sulforhodamine B (SRB) antiproliferative assay, PANC-1. It is filed as cell-based, human. To be noted: Homo sapiens; PANC-1, 48 h, SRB; mean ± SEM of four to six independent experiments. The procedure:
(§1) The antiproliferative properties of andrographolide and all prepared derivatives (2–26) were evaluated against a panel of different cancer cell lines, including human pancreatic ductal adenocarcinoma (PANC-1), colorectal adenocarcinoma (HCT116), melanoma (A375), breast adenocarcinoma (MCF-7) and a non-tumorigenic colon (CCD-18Co) cell line using the sulforhodamine B assay.
(§2) Human breast adenocarcinoma MCF-7, pancreatic ductal adenocarcinoma PANC-1, melanoma A375, and non-tumorigenic colon CCD-18Co cell lines were purchased from ATCC (Rockville, MD, USA). Human colorectal adenocarcinoma HCT116 cells were kindly provided by B. Vogelstein (The Johns Hopkins Kimmel Cancer Center, Baltimore, MD, USA). Tumor cells were routinely cultured in RPMI-1640 medium with UltraGlutamine from Biowest (VWR, Carnaxide, Portugal) supplemented with 10% fetal bovine serum (FBS) from Biowest (VWR, Carnaxide, Portugal), except for the PANC-1 cells, which were grown in DMEM (4.5 g/L glucose) with stable L-glutamine and sodium pyruvate and supplemented with 10% FBS. The non-tumorigenic CCD-18Co cells were cultured in EMEM (Lonza, VWR, Carnaxide, Portugal), supplemented with 10% FBS. All cells were incubated at 37 °C in a humidified atmosphere of 5% CO2. Routine mycoplasma testing was performed using the MycoAlert™ PLUS mycoplasma detection kit (Lonza).
(§3) For the evaluation of the compound effect on cell proliferation, human cell lines were seeded in 96-well plates at a density of 5.0 × 10^3 (HCT116, MCF-7, PANC-1, A375, and CCD-18Co) cells per well, for 24 h. Cells were then treated with serial dilutions of the compound (ranging from 0.63 to 30 µM), for an additional 48 h incubation period. The growth inhibitory effects were assessed by SRB assay, as described in [58], and the half-maximal inhibitory concentration (IC50 values) were determined for each cell line using the GraphPad Prism software version 7.0 (La Jolla, CA, USA). Culture medium containing a maximum of 0.05% dimethyl sulfoxide (DMSO) was used as negative control.

Assay [2] deals with CCD-18Co cells (non-tumorigenic colon). The experiment in a line: Sulforhodamine B (SRB) antiproliferative assay, CCD-18Co. Type of assay: cell-based. To be noted: Homo sapiens, CCD-18Co non-tumorigenic, 48 h, mean ± SEM of four to six independent experiments. The procedure: as §1, §2, §3
Assay [3] concerns A375 cells (melanoma). The experiment in a line: Sulforhodamine B (SRB) antiproliferative assay, A375. It is filed as cell-based. To be noted: Homo sapiens, A-375, A375, 48 h, mean ± SEM of four to six independent experiments. The procedure: as §1, §2, §3
Assay [4] has as its system MCF-7 cells (breast adenocarcinoma). In words: Sulforhodamine B (SRB) antiproliferative assay, MCF-7. Type of assay: cell-based. As to conditions: Homo sapiens, MCF7, MCF-7, 48 h, mean ± SEM of four to six independent experiments. The procedure:
as §1, §2, §3

Assay [5] concerns HCT116 cells (colorectal adenocarcinoma). In words: Sulforhodamine B (SRB) antiproliferative assay, HCT116. Type of assay: cell-based. To be noted: Homo sapiens, HCT-116, HCT116, 48 h, mean ± SEM of four to six independent experiments. The procedure:
as §1, §2, §3

Molecules are shown by their SMILES.

As for `C=C1CC[C@@H]2[C@](C)(COC(C)=O)[C@H](OC(C)=O)CC[C@@]2(C)[C@@H]1C[C@H](C1=CCOC1=O)n1cc(-c2ccc(OC)cc2)nn1` [Compound 16, (12R)-4-(4-methoxyphenyl)-1,2,3-triazole-3,19-diacetoxy-14-deoxy-andrographolide], the IC50 in assay [1] stood at 2.3 ± 0.2 µM; in assay [2] it was 6.8 ± 1 µM; in assay [3], 1.5 ± 0.2 µM; in assay [4], 9.3 ± 0.1 µM; in assay [5], 2.3 ± 0.9 µM.

Turning to `C=C1CC[C@@H]2[C@](C)(COC(C)=O)[C@H](OC(C)=O)CC[C@@]2(C)[C@@H]1C[C@@H](C1=CCOC1=O)n1cc(-c2ccc(OC)cc2)nn1` [Compound 17, (12S)-4-(4-methoxyphenyl)-1,2,3-triazole-3,19-diacetoxy-14-deoxy-andrographolide], the IC50 in assay [1] was 2.1 ± 0.1 µM; in assay [2] it was 4.4 ± 0.9 µM; in assay [3] it was 0.9 ± 0.1 µM; in assay [4], 5.6 ± 0.2 µM; in assay [5], 1.7 ± 0.5 µM.

For the compound `C=C1CC[C@@H]2[C@](C)(COC(C)=O)[C@H](OC(C)=O)CC[C@@]2(C)[C@@H]1C[C@H](C1=CCOC1=O)n1cc(Cc2ccccc2)nn1` [Compound 8, (12R)-4-benzyl-1,2,3-triazole-3,19-diacetoxy-14-deoxy-andrographolide], the 50% inhibitory concentration (IC50) amounted to 3.1 ± 0.4 µM in assay [1]; 8.7 ± 1.9 µM in assay [2]; 23 ± 2 µM in assay [3]; 15.5 ± 0.5 µM in assay [4]; 2.1 ± 0.6 µM in assay [5].

Consider `COc1cc([C@@H]2c3cc4c(cc3[C@@H](O[C@@H]3O[C@@H]5CO[C@@H](C)O[C@H]5[C@H](O)[C@H]3O)[C@H]3COC(=O)[C@H]23)OCO4)cc(OC)c1O` [Etoposide, reference compound], for which the IC50 in assay [1] was determined as 2.8 ± 0.05 µM; in assay [2] it was 0.76 ± 0.01 µM; in assay [3] it was 0.82 ± 0.07 µM; in assay [4], 1.8 ± 0.03 µM; in assay [5], 0.65 ± 0.09 µM.

As for `C=C1CC[C@@H]2[C@](C)(COC(C)=O)[C@H](OC(C)=O)CC[C@@]2(C)[C@@H]1C[C@@H](N=[N+]=[N-])C1=CCOC1=O` [Compound 3, (12R)-azido-3,19-diacetoxy-14-deoxy-andrographolide], the half-maximal inhibitory concentration (IC50) is 1.9 ± 0.1 µM in assay [1]; 3.8 ± 0.7 µM in assay [2]; 1.3 ± 0.1 µM in assay [3]; 6.6 ± 0.1 µM in assay [4]; 7.9 ± 2.1 µM in assay [5].

In the case of `C=C1CC[C@@H]2[C@](C)(COC(C)=O)[C@H](OC(C)=O)CC[C@@]2(C)[C@@H]1C[C@@H](C1=CCOC1=O)n1cc(Cc2ccccc2)nn1` [Compound 9, (12S)-4-benzyl-1,2,3-triazole-3,19-diacetoxy-14-deoxy andrographolide], the 50% inhibitory concentration (IC50) in assay [1] worked out at 2 ± 0.1 µM; in assay [2] it was 3.8 ± 0.9 µM; in assay [3] it was 2.1 ± 0.3 µM; in assay [4] it was 8.1 ± 0.1 µM; in assay [5], 1.9 ± 0.6 µM.

On to `C=C1CC[C@@H]2[C@](C)(COC(C)=O)[C@H](OC(C)=O)CC[C@@]2(C)[C@@H]1C[C@@H](C1=CCOC1=O)n1cc(-c2ccc(-c3ccccc3)cc2)nn1` [Compound 21], for which the IC50 in assay [1] stood at 3.5 ± 0.3 µM; in assay [2], 4.4 ± 0.8 µM; in assay [3], 1.3 ± 0.3 µM; in assay [4], 10.4 ± 0.7 µM; in assay [5] it was 1.2 ± 0.2 µM.

Take `C=C1CC[C@@H]2[C@](C)(COC(C)=O)[C@H](OC(C)=O)CC[C@@]2(C)[C@@H]1C[C@H](C1=CCOC1=O)n1cc(-c2ccc(N)cc2)nn1` [Compound 13, (12R)-4-aniline-1,2,3-triazole-3,19-diacetoxy-14-deoxy-andrographolide]: the IC50 in assay [1] stood at 6.5 ± 0.4 µM; in assay [2], 30 ± 2 µM; in assay [3], 6.8 ± 0.9 µM; in assay [4] it was 26 ± 3 µM; in assay [5] it was 4.8 ± 1.3 µM.

Regarding `C=C1CC[C@@H]2[C@](C)(COC(C)=O)[C@H](OC(C)=O)CC[C@@]2(C)[C@@H]1C[C@H](C1=CCOC1=O)n1cc(-c2ccsc2)nn1` [Compound 25, (12R)-4-(3-thiophene)-1,2,3-triazole-3,19-diacetoxy-14-deoxy-andrographolide], the IC50 in assay [1] was found to be 4.5 ± 2 µM; in assay [2], 8.9 ± 0.2 µM; in assay [3], 1.8 ± 0.3 µM; in assay [4], 6.9 ± 0.1 µM; in assay [5], 1.7 ± 0.3 µM.

On to `C=C1CC[C@@H]2[C@](C)(COC(C)=O)[C@H](OC(C)=O)CC[C@@]2(C)[C@@H]1C[C@H](C1=CCOC1=O)n1cc(CNC(=O)OC(C)(C)C)nn1` [Compound 7, (12R)-4-(tert-butylmethyl carbamate)-1,2,3-triazole-3,19-diacetoxy-14-deoxy-andrographolide], for which the IC50 turned out to be 4.1 ± 0.3 µM in assay [1]; 12.9 ± 2.2 µM in assay [2]; 3.6 ± 0.9 µM in assay [3]; 18 ± 0.1 µM in assay [4]; 1.6 ± 0.4 µM in assay [5].

For `C=C1CC[C@@H]2[C@](C)(COC(C)=O)[C@H](OC(C)=O)CC[C@@]2(C)[C@@H]1C[C@@H](C1=CCOC1=O)n1cc(-c2ccc(OC(F)(F)F)cc2)nn1` [Compound 19], the half-inhibitory concentration (IC50) in assay [1] was found to be 3.1 ± 0.8 µM; in assay [2] it was 6.6 ± 0.9 µM; in assay [3], 7.1 ± 0.1 µM; in assay [4], 7.9 ± 1.5 µM; in assay [5], 4.1 ± 0.2 µM.

Consider `C=C1CC[C@@H]2[C@](C)(COC(C)=O)[C@H](OC(C)=O)CC[C@@]2(C)[C@@H]1C[C@@H](C1=CCOC1=O)n1cc(-c2ccccc2)nn1` [Compound 11, (12S)-4-phenyl-1,2,3-triazole-3,19-diacetoxy-14-deoxy-andrographolide], for which the IC50 in assay [1] was 3.4 ± 0.6 µM; in assay [2], 3.3 ± 0.4 µM; in assay [3], 8.2 ± 0.1 µM; in assay [4], 4.2 ± 0.8 µM; in assay [5], 1.9 ± 0.3 µM.

In the case of `C=C1CC[C@@H]2[C@](C)(COC(C)=O)[C@H](OC(C)=O)CC[C@@]2(C)[C@@H]1C[C@H](C1=CCOC1=O)n1cc(-c2ccc(C#N)cc2)nn1` [Compound 14, (12R)-4-benzonitrile-1,2,3-triazole-3,19-diacetoxy-14-deoxy-andrographolide], the concentration for half-maximal inhibition (IC50) amounted to 2.5 ± 0.3 µM in assay [1]; 3.7 ± 0.9 µM in assay [2]; 1.7 ± 0.2 µM in assay [3]; 7.9 ± 0.6 µM in assay [4]; 2 ± 0.6 µM in assay [5].

Regarding `C=C1CC[C@@H]2[C@](C)(COC(C)=O)[C@H](OC(C)=O)CC[C@@]2(C)[C@@H]1C[C@@H](C1=CCOC1=O)n1cc(-c2ccncc2)nn1` [Compound 23, (12S)-4-(4-pyridine)-1,2,3-triazole-3,19-diacetoxy-14-deoxy-andrographolide], the IC50 amounted to 6.3 ± 1.9 µM in assay [1]; 4.1 ± 0.9 µM in assay [2]; 3.3 ± 1 µM in assay [3]; 11 ± 0.2 µM in assay [4]; 2.8 ± 0.8 µM in assay [5].

As for `C=C1CC[C@@H]2[C@](C)(COC(C)=O)[C@H](OC(C)=O)CC[C@@]2(C)[C@@H]1C[C@H](C1=CCOC1=O)n1cc(-c2ccc(-c3ccccc3)cc2)nn1` [Compound 20], the half-inhibitory concentration (IC50) was 3 ± 1.1 µM in assay [1]; 3.5 ± 0.3 µM in assay [2]; 3.3 ± 1.3 µM in assay [3]; 28 ± 2 µM in assay [4]; 1.4 ± 0.3 µM in assay [5].

With `C=C1CC[C@@H]2[C@](C)(COC(C)=O)[C@H](OC(C)=O)CC[C@@]2(C)[C@@H]1C[C@H](C1=CCOC1=O)n1cc(-c2ccccc2)nn1` [Compound 10, (12R)-4-phenyl-1,2,3-triazole-3,19-diacetoxy-14-deoxy-andrographolide], the 50% inhibitory concentration (IC50) in assay [1] stood at 3.8 ± 0.7 µM; in assay [2] it was 7.2 ± 0.6 µM; in assay [3] it was 7.7 ± 1 µM; in assay [4], 7.8 ± 0.8 µM; in assay [5] it was 2.2 ± 0.1 µM.

`C=C1CC[C@@H]2[C@](C)(COC(C)=O)[C@H](OC(C)=O)CC[C@@]2(C)[C@@H]1C[C@@H](C1=CCOC1=O)n1cc(-c2ccc(C#N)cc2)nn1` [Compound 15, (12S)-4-benzonitrile-1,2,3-triazole-3,19-diacetoxy-14-deoxy-andrographolide]: the concentration for half-maximal inhibition (IC50) worked out at 3.3 ± 0.9 µM in assay [1]; 6.2 ± 1.2 µM in assay [2]; 1.2 ± 0.2 µM in assay [3]; 5.6 ± 0.2 µM in assay [4]; 1.3 ± 0.1 µM in assay [5].

For `C=C1CC[C@@H]2[C@](C)(COC(C)=O)[C@H](OC(C)=O)CC[C@@]2(C)[C@@H]1C/C=C1/C(=O)OC[C@H]1OC(C)=O` [Compound 2, 3,14,19-Triacetyl Andrographolide], the IC50 in assay [1] was determined as 1.9 ± 0.2 µM; in assay [2] it was 5.6 ± 1.3 µM; in assay [3] it was 1.2 ± 0.2 µM; in assay [4] it was 4.9 ± 0.1 µM; in assay [5], 1.4 ± 0.1 µM.
